Experimental data reported in publication doi:10.1101/2024.08.19.608619, “Discovery of potent SARS-CoV-2 nsp3 macrodomain inhibitors uncovers lack of translation to cellular antiviral response” (bioRxiv, 2024).
In brackets after ≈: the same amount, converted by molar mass. Several values for one entry are separate records, joined by “and”; a condition that tells them apart may be missing. Equal values may be shown once.

Experiments:
[1] = Hepatic microsomal stability, HLM; format: in vitro ADME, human; settings: In vitro human liver microsomal stability; for perc_remaining_no_cofactor: no cofactor
[2] = Permeability Papp (AB) MDR1/MDCKII; settings: for papp_b_to_a_mean / efflux_ratio / perc_recovery_a_to_b_mean / perc_recovery_b_to_a_mean / papp_a_to_b_mean: In vitro MDR1-MDCKII permeability; for perc_recovery_a_to_b_mean / perc_recovery_a_to_b_inhibitor_mean: recovery A to B; for perc_recovery_b_to_a_mean / perc_recovery_b_to_a_inhibitor_mean: recovery B to A; for papp_a_to_b_mean: A to B
HeLa-ACE2 cells = settings: HeLa-ACE2 cytotoxicity; for perc_max_measured: highest measured response of the dose series; for perc_min_measured: lowest measured response of the dose series
[3] = system: SARS-CoV-2, isolate USA-WA1/2020; experiment: microbe, parasite or virus in culture; format: cell-based; settings: HeLa-ACE2 SARS-CoV-2 antiviral effect without P-gp inhibitor; for perc_max_measured: maximum measured response of dose series; for perc_min_measured: minimum measured response of dose series; for EC50: read-out: ec50; for EC90: read-out: ec90
[4] = In vitro kinetic solubility; settings: In vitro kinetic solubility, ph 7.4
LogD = settings: pH 7.4; In vitro LogD
[5] = Hepatic microsomal stability, MLM; format: in vitro ADME; settings: In vitro mouse liver microsomal stability; for perc_remaining_no_cofactor: no cofactor
in vitro = settings: human, hela-ace2 cells, 50.0
[6] = MDR1-MDCKII, with inhibitor Cyclosporin A
[7] = MDR1-MDCKII, with inhibitor Verapamil

Compound	clint [1] [µL/min/mg]	perc_remaining [1] [%]	t_half [1] [min]	perc_remaining_no_cofactor [1] [%]	perc_recovery_a_to_b_mean ([2]; no inhibitor)	CC50 (HeLa-ACE2 cells) [µM]	cc10 (HeLa-ACE2 cells) [µM]	perc_max_measured (HeLa-ACE2 cells) [%]	perc_min_measured (HeLa-ACE2 cells) [%]	perc_max_measured [3] [%]	perc_min_measured [3] [%]	EC50 [3] [µM]	EC90 [3] [µM]	solubility_mean [4] [µM]	logd (LogD)	clint [5] [µL/min/mg]	perc_remaining [5] [%]	t_half [5] [min]	perc_remaining_no_cofactor [5] [%]	CC50 at 24 h (in vitro) [µM]	further results
CCNC(=O)c1cc2c(N[C@@H](c3ccc4c(c3)S(=O)(=O)CCO4)C(C)C)ncnc2[nH]1 (racemic) [ASAP-0012317]	64.0	33.0	26.2	95.0	71.9% and 74.3% and 65.2%	> 20	> 20.0	105.961	74.573	111.753	79.377	> 20	> 20	328 (≈ 145 µg/mL)	2.9	26.0	66.0	65.5	99.0	> 20	papp_b_to_a_mean ([2]; B to A, no inhibitor): 1.5 ×10⁻⁶ cm/s and 1.4 ×10⁻⁶ cm/s; efflux_ratio ([2]; no inhibitor): 20.3 and 15.3; perc_recovery_b_to_a_mean ([2]; no inhibitor): 68.3% and 88.2%; papp_b_to_a_inhibitor_mean ([2]; MDR1-MDCKII, B to A, with inhibitor Verapamil): 1.5 ×10⁻⁶ cm/s; perc_recovery_a_to_b_inhibitor_mean [2, 6]: 82.7%; perc_recovery_a_to_b_inhibitor_mean [2, 7]: 92.9%; perc_recovery_b_to_a_inhibitor_mean [2, 6]: 89.0%; perc_recovery_b_to_a_inhibitor_mean [2, 7]: 90.3%
CC(C)[C@@H](Nc1ncnc2[nH]ccc12)c1ccc2c(c1)S(=O)(=O)CCC2 (single isomer, unassigned) [ASAP-0008676]	21.0	69.0	78.6	99.0	75.4% and 74.2% and 91.3%	> 20	> 20.0	101.14	87.391	117.108	66.698	> 20	> 20	386 (≈ 143 µg/mL)	2.5	55.0	41.0	30.4	117.0	> 20	papp_b_to_a_mean ([2]; B to A, no inhibitor): 7.1 ×10⁻⁶ cm/s and 4.9 ×10⁻⁶ cm/s; efflux_ratio ([2]; no inhibitor): 47.7 and 54.4; perc_recovery_b_to_a_mean ([2]; no inhibitor): 80.0% and 74.5%; perc_recovery_a_to_b_inhibitor_mean [2, 6]: 72.2%; perc_recovery_a_to_b_inhibitor_mean [2, 7]: 82.4%; perc_recovery_b_to_a_inhibitor_mean [2, 6]: 63.3%; perc_recovery_b_to_a_inhibitor_mean [2, 7]: 89.1%
CC(C)[C@H](Nc1ncnc2[nH]c(-c3cnn(C)c3C#N)cc12)c1ccc2c(c1)S(=O)(=O)CCC2 (single isomer, unassigned) [ASAP-0011144]	935.0	0.0	1.8	101.0	95.4% and 83.3%	> 20	> 20.0	100.779	87.504	129.006	5.734	6.21	7.19	22 (≈ 10.5 µg/mL)	3.3	311.0	1.0	5.4	90.0	> 20	papp_a_to_b_mean ([2]; mean): 4.33 ×10⁻⁶ cm/s; papp_a_to_b_mean ([2]; no inhibitor): 0.109 ×10⁻⁶ cm/s and 0.101 ×10⁻⁶ cm/s; papp_b_to_a_mean ([2]; B to A, no inhibitor): 6.0 ×10⁻⁶ cm/s and 7.2 ×10⁻⁶ cm/s; efflux_ratio ([2]; no inhibitor): 54.9 and 71.8; perc_recovery_a_to_b_mean ([2]; mean): 71.4%; perc_recovery_b_to_a_mean ([2]; no inhibitor): 82.4% and 102.0%; perc_recovery_a_to_b_inhibitor_mean [2, 6]: 78.3%; perc_recovery_a_to_b_inhibitor_mean [2, 7]: 84.6%; perc_recovery_b_to_a_inhibitor_mean [2, 6]: 76.3%; perc_recovery_b_to_a_inhibitor_mean [2, 7]: 95.9%
CNCc1cc(-c2cc3c(N[C@H](c4ccc5c(c4)S(=O)(=O)CCC5)C(C)C)ncnc3[nH]2)co1 (single isomer, unassigned) [ASAP-0011169]	67.0	33.0	25.1	98.0		> 20	> 20.0	96.832	86.562	94.818	27.713	11.1	> 20	358 (≈ 172 µg/mL)	2.1	40.0	51.0	41.8	96.0	> 20	papp_a_to_b_mean ([2]; mean): 0.483 ×10⁻⁶ cm/s; perc_recovery_a_to_b_mean ([2]; mean): 63.8%
CC(C)[C@H](Nc1ncnc2[nH]c(-c3cnn(C)c3C#N)cc12)c1ccc2c(n1)NC(=O)CO2 (single isomer, unassigned) [ASAP-0011177]	137.0	10.0	12.2	92.0	69.4%	> 20	> 20.0	109.886	55.576	70.604	3.388	0.858	> 20	28 (≈ 12.4 µg/mL)	3.7	131.0	12.0	12.8	85.0	> 20	papp_a_to_b_mean ([2]; mean): 9.35 ×10⁻⁶ cm/s; papp_a_to_b_mean ([2]; no inhibitor): 0.0964 ×10⁻⁶ cm/s; papp_b_to_a_mean ([2]; B to A, no inhibitor): 6.5 ×10⁻⁶ cm/s; efflux_ratio ([2]; no inhibitor): 67.2; perc_recovery_a_to_b_mean ([2]; mean): 80.2%; perc_recovery_b_to_a_mean ([2]; no inhibitor): 79.8%; perc_recovery_a_to_b_inhibitor_mean [2, 7]: 78.2%; perc_recovery_b_to_a_inhibitor_mean [2, 7]: 81.1%
CC(C)[C@@H](Nc1ncnc2[nH]c(-c3cnn(C)c3C#N)cc12)c1ccc2c(n1)NC(=O)CO2 (single isomer, unassigned) [ASAP-0011180]	51.0	43.0	32.6	98.0		> 20	> 20.0	104.887	81.763	122.922	8.802	2.46	5.57	28 (≈ 12.4 µg/mL)	3.7	189.0	5.0	8.8	92.0	> 20	papp_a_to_b_mean ([2]; mean): 9.64 ×10⁻⁶ cm/s; perc_recovery_a_to_b_mean ([2]; mean): 84.8%
CC(C)[C@H](Nc1ncnc2[nH]c(-c3cnn(C)c3)cc12)c1ccc2c(c1)S(=O)(=O)CCC2 (single isomer, unassigned) [ASAP-0012327]	169.0	7.0	9.9	95.0	65.0%	> 20	> 20.0	100.334	94.258	111.115	52.798	> 20	> 20	111 (≈ 50 µg/mL)	2.9	255.0	1.0	6.5	98.0	> 20	papp_a_to_b_mean ([2]; no inhibitor): 1.18 ×10⁻⁶ cm/s
